Test [1] concerns the target T1, 5-hydroxytryptamine receptor 2C (Homo sapiens, UniProt P28335).
T1 sequence (P28335 whole entry): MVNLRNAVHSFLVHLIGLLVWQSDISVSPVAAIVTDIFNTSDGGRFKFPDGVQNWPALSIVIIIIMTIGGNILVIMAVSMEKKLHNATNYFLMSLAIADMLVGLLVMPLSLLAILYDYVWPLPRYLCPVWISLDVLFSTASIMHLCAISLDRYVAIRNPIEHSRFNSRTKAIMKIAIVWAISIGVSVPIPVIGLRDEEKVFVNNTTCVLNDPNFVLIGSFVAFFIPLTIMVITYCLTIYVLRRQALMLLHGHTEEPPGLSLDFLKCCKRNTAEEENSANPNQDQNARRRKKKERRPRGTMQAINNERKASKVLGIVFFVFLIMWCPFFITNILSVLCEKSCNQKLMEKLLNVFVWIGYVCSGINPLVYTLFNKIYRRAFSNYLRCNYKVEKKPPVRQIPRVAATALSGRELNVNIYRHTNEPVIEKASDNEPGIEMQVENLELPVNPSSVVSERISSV
Kind of test: Displacement of [3H]mesulergine from human 5HT2C receptor in human tsA201 cells. The test is classed as cell-based.

In test [2] the target is 5-hydroxytryptamine receptor 6 (Homo sapiens, UniProt P50406). Kind of test: Displacement of [3H]5-LSD from human 5HT6 receptor expressed in human HeLa cells. The test is classed as cell-based.
5-hydroxytryptamine receptor 6, sequence (P50406 whole entry): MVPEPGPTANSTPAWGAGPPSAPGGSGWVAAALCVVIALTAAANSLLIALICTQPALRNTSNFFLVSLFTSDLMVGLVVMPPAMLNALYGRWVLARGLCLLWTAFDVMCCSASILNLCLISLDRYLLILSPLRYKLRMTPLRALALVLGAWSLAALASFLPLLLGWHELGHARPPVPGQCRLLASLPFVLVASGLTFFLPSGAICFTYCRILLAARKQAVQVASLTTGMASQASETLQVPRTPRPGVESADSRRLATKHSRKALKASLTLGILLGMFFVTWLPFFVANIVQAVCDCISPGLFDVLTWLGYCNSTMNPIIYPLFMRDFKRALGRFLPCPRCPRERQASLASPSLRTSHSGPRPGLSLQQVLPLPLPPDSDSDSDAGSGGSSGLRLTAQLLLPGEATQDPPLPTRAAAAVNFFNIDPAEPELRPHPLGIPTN

Drawing on ChEMBL document CHEMBL1782020, “Novel 7-phenylsulfanyl-1,2,3,4,10,10a-hexahydro-pyrazino[1,2-a]indoles as dual serotonin 5-HT2C and 5-HT6 receptor ligands” (Bioorg Med Chem Lett, 2010), this text covers Ki for 15 compounds.

For orientation: Ki means the equilibrium dissociation constant of an inhibitor or competing ligand from its target. A lower Ki goes with tighter binding. With `FC(F)(F)c1cccc(Sc2ccc3c(c2)N2CCNCC2C3)c1` (stereo unspecified), the Ki in test [1] was 180 nM; in test [2] it was 300 nM.
As for `Cc1ccc(Sc2ccc3c(c2)N2CCNCC2C3)cc1` (stereo unspecified), the Ki was 68 nM in test [1] and 110 nM in test [2].
Regarding `NCCc1cccc(Sc2ccccc2)c1`, the affinity in test [1], expressed as Ki, was 150 nM.
As to `O=C1NCCN1CCN1CCC(c2cn(-c3ccc(F)cc3)c3ccc(Cl)cc23)CC1` [SERTINDOLE], the Ki in test [2] is 5 nM.
In the case of `Fc1ccccc1Sc1ccc2c(c1)N1CCNCC1C2` (stereo unspecified), the Ki in test [1] was 49 nM; in test [2], 150 nM.
`COc1ccc(Sc2cccc(N3CCNCC3)c2)cc1` showed a Ki in test [1] of 74 nM.
Regarding `COc1ccccc1Sc1ccc2c(c1)N1CCNCC1C2` (stereo unspecified), the inhibition constant Ki in test [1] is 41 nM; in test [2] it was 23 nM.
Turning to `Fc1ccc(Sc2ccc3c(c2)N2CCNCC2C3)cc1` (stereo unspecified), the inhibition constant Ki in test [1] is 61 nM; in test [2], 160 nM.
Consider `FC(F)(F)c1ccccc1Sc1ccc2c(c1)N1CCNCC1C2` (stereo unspecified), for which the results for the Ki in test [1] and in test [2] were 83 nM and 330 nM, respectively.
For the compound `COc1cccc(Sc2ccc3c(c2)N2CCNCC2C3)c1` (stereo unspecified), the Ki in test [1] was determined as 120 nM; in test [2] it was 110 nM.
In test [1], `c1ccc(Sc2cccc(N3CCNCC3)c2)cc1` displayed a Ki of 91 nM.
For `Cc1ccccc1Sc1ccc2c(c1)N1CCNCC1C2` (stereo unspecified), the Ki is 49 nM in test [1] and 81 nM in test [2].
The corresponding values for `Cc1cccc(Sc2ccc3c(c2)N2CCNCC2C3)c1` (stereo unspecified) are 77 nM and 50 nM.
As for `COc1ccc(Sc2ccc3c(c2)N2CCNCC2C3)cc1` (stereo unspecified), the results for the Ki in test [1] and in test [2] were 57 nM and 78 nM, respectively.
Consider `FC(F)(F)c1ccc(Sc2ccc3c(c2)N2CCNCC2C3)cc1` (stereo unspecified), for which the Ki worked out at 280 nM in test [1] and 760 nM in test [2].
